Results reported in patent US20100261246A1, “METHOD FOR INHIBITING TELOMERASE REACTION” (PANASONIC CORPORATION, priority 2009, published 2010).

Columns and labels:
telomerase = experiment: Telomerase reaction carried out first, then PCR of the diluted reaction solution, gel electrophoresis, with or without λDNA; type: biochemical; conditions: final concentrations 0.1 to 10 μM
Experimental: (§1) Moreover, effects of inhibiting telomerase by TMPyP and anionic phthalocyanines were compared in Comparative Example 3 and Example 4 to 5 below. In these experiments, the S7700 kit was used similarly to the aforementioned Comparative Examples 1 to 2 and Examples 1 to 3. However, in Comparative Examples 1 to 2 and Examples 1 to 3 described above, the reagents required only for the telomerase reaction and PCR were all mixed first, and the telomerase reaction and PCR were carried out sequentially by regulating the reaction temperature. To the contrary, in the following Comparative Example 3 and Examples 4 to 5, only the reagents required for the telomerase reaction were first mixed to carry out a telomerase reaction, and a part of the reaction solution and the reagents required for the PCR were mixed to carry out the PCR.
In addition, in each of the following Comparative Example 3 and Examples 4 to 5, experiments were carried out with or without addition of a λDNA in the telomerase reaction. Addition of the λDNA was intended to reproduce for mimicking the conditions in which a large amount of double-stranded DNAs are present as in the case of genomic DNAs in cells, and to study the effects of inhibiting telomerase by TMPyP or anionic phthalocyanines even under conditions more approximate to those in vivo, by adding a λDNA.
Telomerase reaction solution in a total volume of 10 μL were prepared by mixing 1 μL of 10× TRAP Reaction buffer, 0.2 μL of 50× dNTP Mix, 0.2 μL of TS primer, 4 μL of the telomerase solution prepared in Comparative Example 1, 2 μL of the TMPyP aqueous solution, and 2.6 μL of milliQ water (the reaction solutions having final TMPyP concentrations of 0 M, 0.1 μM, 0.3 μM, 1 μM, 3 μM and 10 μM were prepared, respectively). Then, the reaction solutions were stood under a condition of 30° C. for 60 min to allow a telomerase reaction to be carried out.
(§2) Next, 4 μL of a solution prepared by diluting the solution after the telomerase reaction 20 times with milliQ water, 0.2 μL of 50× dNTP Mix, 0.2 μL of TS primer, 0.2 μL of Primer Mix, 0.1 μL of TaKaLa LA Taq Hot Start Version (manufactured by Takara Bio Inc.), 1 μL of 10× LA PCR buffer II (Mg^2+ plus) (buffer solution included in TaKaLa LA Taq Hot Start Version), and 4.3 μL of milliQ water were mixed to prepare a PCR solution in a total volume of 10 μL. Then, PCR was carried out by allowing this PCR solution to stand under temperature conditions in which a thermo cycle of: 30 sec at 95° C.; 30 sec at 59° C.; and 30 sec at 72° C. was repeated 30 times.
(§3) Finally, the solution after the PCR was electrophoresed on a 10% polyacrylamide gel, and stained with GelStar Nucleic Acid Stain (manufactured by Takara Bio Inc.). […] In the order from the leftmost lane, the results with final concentrations of TMPyP being 0 M, 0.1 μM, 0.3 μM, 1 μM, 3 μM and 10 μM are shown.
On the other hand, experiments in which a λDNA was added to the telomerase reaction solution were also carried out. More specifically, in preparing the telomerase reaction solution described above, 2.6 μL of a λDNA solution (manufactured by Takara Bio Inc.) was mixed in place of mixing 2.6 μL of milliQ water. Other telomerase reaction temperature/time schedule, PCR solution preparation condition, PCR temperature/time schedule, electrophoresis condition were just the same.

[1] = system: TaKaLa LA Taq Hot Start Version (polymerase reaction); experiment: PCR control band in the separate telomerase reaction / PCR experiment; type: biochemical; conditions: 10 μM, no addition of λDNA
Experimental: as §1, §2, §3

double-stranded DNA = experiment: Absorbance 480 to 800 nm of phthalocyanine mixed with double-stranded DNA solution; type: binding; conditions: 15 μM compound solution, DNA 50 μM, pH7
Experimental: A solution of 50 mM HEPES and 100 mM NaCl, pH7 (total volume: 100 μL) containing a single-stranded DNA consisting of a sequence of 5′-AGAAGAGAAAGA-3′ (SEQ ID NO: 4) and a single-stranded DNA consisting of a sequence of 5′-TCTTTCTCTTCT-3′ (SEQ ID NO: 5) at each concentration of 50 μM was prepared, which was incubated at 90° C. for 5 min, and thereafter cooled to 0° C. at a rate of temperature fall of 2° C./min, followed by finally incubating at 0° C. for 2 hrs. Since the aforementioned two kinds of DNAs are complementary to one another, both DNAs form a double-stranded DNA in the solution as a result of the incubation (hereafter, the solution referred to as “double-stranded DNA solution”).
(§4) Next, the aforementioned CuPC solution and single-stranded DNA solution, and the aforementioned CuPC solution and double-stranded DNA solution were similarly mixed, respectively. And then the absorbance of these liquid mixtures was measured at 480 to 800 nm. FIG. 9(A) and FIG. 9(B) show the results of the measurement in the cases of the single-stranded DNA solution and the double-stranded DNA solution, respectively.
as §4, with “NiPC” for “CuPC”, “respectively;” for “respectively. And then”, “11(A)” for “9(A)”, “11(B)” for “9(B)”, “respectively. In each drawing, the result obtained when the NC solution was used is also shown together.” for “respectively.”
as §4, with “PC” for “CuPC”, “respectively;” for “respectively. And then”, “mixture” for “mixtures”, “13(A)” for “9(A)”, “13(B)” for “9(B)”, “respectively. In each drawing, the result obtained when the NC solution was used is also shown together.” for “respectively.”
as §4, with “CoPC” for “CuPC”, “respectively, and” for “respectively. And”, “15(A)” for “9(A)”, “15(B)” for “9(B)”, “respectively. In each drawing, the result obtained when the NC solution was used is also shown together.” for “respectively.”

Chain of telomerase (O14746 whole entry): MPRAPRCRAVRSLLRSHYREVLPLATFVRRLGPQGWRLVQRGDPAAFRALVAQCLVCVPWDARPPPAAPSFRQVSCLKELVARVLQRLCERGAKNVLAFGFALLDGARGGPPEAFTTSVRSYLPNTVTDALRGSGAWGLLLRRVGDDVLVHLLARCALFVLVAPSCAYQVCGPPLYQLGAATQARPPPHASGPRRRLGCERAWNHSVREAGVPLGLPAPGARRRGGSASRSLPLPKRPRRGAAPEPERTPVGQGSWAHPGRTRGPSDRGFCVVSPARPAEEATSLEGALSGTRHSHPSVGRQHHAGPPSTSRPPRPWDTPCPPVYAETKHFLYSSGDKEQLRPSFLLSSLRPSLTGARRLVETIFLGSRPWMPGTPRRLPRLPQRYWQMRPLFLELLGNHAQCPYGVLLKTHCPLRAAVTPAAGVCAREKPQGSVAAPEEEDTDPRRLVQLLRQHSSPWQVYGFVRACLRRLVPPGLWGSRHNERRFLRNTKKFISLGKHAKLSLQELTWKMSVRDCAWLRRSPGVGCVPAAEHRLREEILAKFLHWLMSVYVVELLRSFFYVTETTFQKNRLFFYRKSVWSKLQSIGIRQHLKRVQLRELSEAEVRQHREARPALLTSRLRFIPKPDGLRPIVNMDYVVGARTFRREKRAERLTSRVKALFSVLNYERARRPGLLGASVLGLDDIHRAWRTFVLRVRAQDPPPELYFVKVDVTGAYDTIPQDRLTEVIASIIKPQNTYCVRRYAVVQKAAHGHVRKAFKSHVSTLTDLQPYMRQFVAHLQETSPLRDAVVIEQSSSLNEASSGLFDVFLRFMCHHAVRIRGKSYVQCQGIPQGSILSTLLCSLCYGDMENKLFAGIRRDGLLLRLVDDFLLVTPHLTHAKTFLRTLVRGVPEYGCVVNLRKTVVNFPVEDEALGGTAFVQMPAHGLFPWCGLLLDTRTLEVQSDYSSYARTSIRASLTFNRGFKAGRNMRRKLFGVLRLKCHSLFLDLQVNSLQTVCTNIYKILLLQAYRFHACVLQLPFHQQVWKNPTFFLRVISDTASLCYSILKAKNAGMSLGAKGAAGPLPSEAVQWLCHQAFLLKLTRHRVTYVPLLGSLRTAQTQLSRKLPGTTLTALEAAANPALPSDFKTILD

| inhibition of the telomerase reaction (band of telomerase reaction product) (telomerase; no addition of λDNA) | amplification of the PCR control (band) [1] | Substance | inhibition of the telomerase reaction (band of telomerase reaction product) (telomerase; in the presence of λDNA) | interaction with the double-stranded DNA (absorption spectrum vs NC solution) (double-stranded DNA) |
| --- | --- | --- | --- | --- |
| inhibited with higher concentration | not inhibited | Copper(II) phthalocyanine-3,4′,4″,4′″-tetrasulfonic acid tetrasodium salt [CuPC] | can efficiently inhibit the telomerase reaction | an interaction did not occur |
| inhibited with higher concentration | not inhibited | Nickel(II) phthalocyanine tetrasulfonic acid tetrasodium salt [NiPC] | can efficiently inhibit the telomerase reaction | an interaction did not occur |
